Reference: patent US7442788B2, “Antisense molecules and method of controlling expression of gene function by using the same” (Japan Science and Technology Corporation, priority 2001, dated 2008)
Several values for one entry are separate records, joined by “and”; a condition that tells them apart may be missing. Identical values can stand only once. Each block holds one compound with its values, some of them ahead of it.

What was measured:
[1] = Circular dichroism (CD) spectrum, molar ellipticity at about 270 nm as measure of base moiety orientation (syn/anti); type: physicochemical; conditions: for change of [θ]ext / CD peak from phosphate buffer to borate buffer (borax): phosphate vs borate buffer; for Δ[θ]ext: phosphate buffer minus borate buffer
Excerpt: The molar ellipticity ([θ]max) at about 270 nm in the CD spectrum of a nucleoside reflects two factors, namely the orientation of the base moiety to the furanose moiety and the puckering of the furanose ring. It is known that the molar ellipticity at about 270 nm markedly decreases in the syn orientation as compared with the anti orientation. […]
[…] […] The rate of syn orientation induction in Urd in the presence of boric acid was smaller as compared with IPU but this can be explained by the presence of an equilibrium between the borate ester formation and the dissociation.
Specifically, CD spectra were measured with Urd, 5′-aminouridine (5′-NH2-Urd) and 5′-aminoisopropylideneuridine (5′-NH2-IPU) in phosphate buffer (pH 7.2) and with 5′-NH2-Urd in borate buffer (pH 7.2) for the investigation of uracil moiety orientations. […] This is presumably due to a syn orientation-inducing effect of hydrogen bond formation between the oxygen atom of the 2-position carbonyl group of the nucleoside base moiety and the 5′-position amino hydrogen atom. Under the measurement conditions in this case, the 5′-position amino group of 5′-NH2-Urd occurs in an ammonium ion state and presumably serves as a good hydrogen bond donor. […] This is probably due to two synergistic effects, namely the fixation of the sugar moiety to the 2′,3′-planar structure and the hydrogen bond formation between the 5′-position amino group and the 2-position carbonyl group of the base moiety.
Then, on the supposition that Urd in phosphate buffer ([θ]max value=9700) is in an ideal 100% anti orientation and 5′-NH2-IPU in phosphate buffer ([θ]max value=1200) in an ideal 100% syn orientation, the orientations of the base moiety (uracil) of uridine and uridine derivatives (5′-NH2-Urd, IPU, 5′-NH2-IPU) were evaluated under different conditions (in phosphate buffer, in borate buffer).

[2] = test system: 5′-d(AAAAACCA)-3′; assay: Melting temperature (Tm) of PRNA (octamer)-DNA hybrid by UV absorbance change; conditions: binding target 5′d(AAAAACCA)3′
Procedure: (§1) Specifically, the PRNA (octamer NH2-UIIUUUUU-Lys-OH) was mixed with each of oligonucleotide octamers specified in Table 6, the melting temperature (Tm) was determined by measuring the resulting change in absorbance on UV spectra, and the ability of the PRNA (octamer) to hybridize with the nucleic acid (complex forming ability) was evaluated based on the resultant melting temperature. Furthermore, the effects of a borate on the PRNA (octamer)-DNA hybrid formation and the stability thereof were investigated using the PRNA (octamer) and 5′-d(AAAAACCA)-3′, a complementary compound as its binding target oligonucleotide, and measuring the melting temperatures with and without addition of borax (20 mM) to the phosphate buffer and comparing them. A control experiment was carried out in the same manner using 5′-d(ACCAAAAA)-3′ as the binding target oligonucleotide in lieu of 5′-d(AAAAACCA)-3′.

[3] = test system: 5′-d(ACCAAAAA)-3′; assay: Melting temperature (Tm) of PRNA (octamer)-DNA hybrid by UV absorbance change, control experiment; type: binding; conditions: for Tm: binding target 5′d(ACCAAAAA)3′
Procedure: as §1

[4] = test system: d(A)8; assay: Melting point (Tm) of complex with oligonucleotide by UV absorbance change; type: binding; conditions: phosphate pH 7.2
Procedure: (§2) Specifically, the PRNA2 (octamer) (17) was mixed with the oligonucleotide octamer shown in Table 3, the melting point (Tm) was determined by measuring the resulting change in absorbance on a UV spectrum, and the ability of the PRNA2 (octamer) (17) to hybridize with a nucleic acid (complex forming ability) was evaluated from that melting point. Further, for examining the influence of boric acids on the PRNA2 (octamer)-DNA hybrid formation and on the stability thereof, melting point measurements were carried out using the PRNA2 (octamer) (17) and d(A)8 as the binding target oligonucleotide to the PRNA2, namely a complementary compound to (T)8, with and without addition of borax (20 mM), and the melting points were compared. A control run was carried out in the same manner using (T)8 as the binding target oligonucleotide in lieu of d(A) 8.

[5] = test system: (T)8; assay: Melting point (Tm) of complex with oligonucleotide by UV absorbance change, control run; type: binding; conditions: phosphate pH 7.2
Procedure: as §2

[6] = test system: d(A)12; assay: Melting temperature (Tm) of dodecameric chimera nucleic acid with complementary DNA; type: binding
Procedure: Using the above dodecameric chimera nucleic acid and a DNA having a complementary base sequence, the melting temperature Tm was measured in phosphate buffer allowing predominance of the anti orientation in the PRNA moiety.

[7] = Association constant with boric acid from CD peak decrement against borax/boric acid concentration, curve fitting; type: binding
Procedure: However, there is no direct evidence as yet that this change in base moiety orientation is induced by borate ester bond formation. Therefore, the dependency of the change in base moiety orientation on the concentration of borax (Na2B4O7) was investigated at pH 7.2. […] The association constant of 5′-NH2-Urd with boric acid was determined by plotting the decrement in peak height against the boric acid (borax) concentration, followed by curve fitting. Supposing that borax give 4 equivalents of boric acid in aqueous solution, the association constant of 5′-NH2-Urd with boric acid was calculated at 75 M^−1.
In addition to the above-mentioned borax, boric acid (B(OH)3) was also used and the addition test was carried out in the same manner. In this case, too, decreases in peak height were observed, and the association constant was calculated at 49 M^−1. In addition, changes in orientation due to ester formation were also observed with methylboric acid and phenylboric acid.
As is evident from FIG. 8a, almost the same change as that attained by addition of 50 mM of borax at pH 7.2 was obtained at pH 8.8 only by addition of 2 mM of borax. […] The association constant 5′-NH2-Urd with boric acid was calculated at 600 M^−1, which is greater by one order than at pH 7.2.

[8] = test system: polyadenylic acid (poly(A)); assay: Complex formation by continuous absorbance (260 nm) plotting, control by borax and sugars; type: binding
Procedure: Therefore, poly(Nγ-(5′-deoxy-5′-uridyl)-L-glutamine) PRNA1 (Production Example 1) was examined for its complex forming ability using polyadenylic acid (poly(A)) as its complementary strand. […] Then, borax was added to this PRNA1- and poly(A)-containing phosphate buffer solution, whereupon the absorbance (260 nm) increased in a concentration-dependent manner until a certain concentration, as shown by the plots ▪ in FIG. 20(a). Upon addition of borax in an amount about 3 times the amount of the PRNA1, the absorbance (260 nm) increased to be the original absorbance prior to addition of poly(A). […] Furthermore, this borate ester was in equilibrium with its anionic form even at pH 7.2.

[9] = phosphate buffer (pH 7.2), no borax, Urd = 100% anti, 5′-NH2-IPU = 100% syn supposed

[θ]max ([1]; phosphate buffer (pH 7.2)): 1200 deg cm^2dmol^−1 | proportion of syn orientation of the base moiety [1, 9]: 100 % syn
Compound: 5′-aminoisopropylideneuridine [5′-NH2-IPU, reference compound]

[θ]max ([1]; borate buffer (pH 7.2)): 4900 deg cm^2dmol^−1 | [θ]max ([1]; phosphate buffer (pH 7.2)): 8400 deg cm^2dmol^−1
Compound: NC[C@H]1O[C@@H](n2ccc(N)nc2=O)[C@H](O)[C@@H]1O [5′-NH2-Cyd, 5′-amino-5′-deoxycytidine]

[θ]max ([1]; borate buffer (pH 7.2)): 7400 deg cm^2dmol^−1 | proportion of syn orientation of the base moiety ([1]; borate buffer (pH 7.2)): 27 % syn | [θ]max ([1]; phosphate buffer (pH 7.2)): 9700 deg cm^2dmol^−1 | proportion of anti orientation of the base moiety ([1]; phosphate buffer (pH 7.2)): 100 % anti
Compound: O=c1ccn([C@@H]2O[C@H](CO)[C@@H](O)[C@H]2O)c(=O)[nH]1 [Urd, uridine, reference compound]

change of [θ]ext / CD peak from phosphate buffer to borate buffer (borax) [1]: marked decrease
Compound: NH2-isoGln(5′U)-isoGln(5′I)-isoGln(5′I)-isoGln(5′U)-isoGln(5′U)-isoGln(5′U)-isoGln(5′U)-isoGln(5′U)-Lys-OH [NH2UIIUUUUU-Lys-OH]
Tm ([2]; 20 mM borax): <0 °C | Tm ([2]; 20 mM borax, listed as PRNA (octamer)): lower than 0 °C | Tm ([2]; no additive, 1/30 M phosphate buffer): 7.8 °C | Tm ([3]; 20 mM borax): <0 °C | Tm ([3]; no additive): 6.2 °C | lowering of Tm with 5′-d(ACCAAAAA)-3′ in lieu of 5′-d(AAAAACCA)-3′ ([3]; no additive): 1.6 °C

Molar ellipticity ([θ]ext) at about 270 nm ([1]; borate buffer (pH 7.2)): 1250 deg·cm2/dmol | Molar ellipticity ([θ]ext) at about 270 nm ([1]; phosphate buffer (pH 7.2)): 12300 deg·cm2/dmol | Δ[θ]ext [1]: 11050
Compound: Boc-isoGln(5′U)-isoGln(5′U)-OH [U-U]

Molar ellipticity ([θ]ext) at about 270 nm ([1]; phosphate buffer (pH 7.2)): 6600 deg·cm2/dmol | Δ[θ]ext [1]: 3300
Compound: Boc-isoGln(5′U)-isoGln(5′I)-OH [U-I]

proportion of syn orientation of the base moiety ([1]; 5.5 mM borax added, phosphate buffer pH 7.2): 76 % syn | proportion of syn orientation of the base moiety ([1]; 5.5 mM borax, pH adjusted from 7.2 to 6.2): 41 % syn | proportion of syn orientation of the base moiety ([1]; borate buffer (pH 7.2)): 64 % syn | proportion of syn orientation of the base moiety [1, 9]: 39 % syn
Compound: Boc-AEG(5′U)-OH
change of CD peak at about 270 nm / orientation upon addition of borax ([1]; pH 6.0): almost no decrease in the relevant peak was observed | change of CD peak at about 270 nm / orientation upon addition of borax ([1]; pH 8.8): very efficient increase in syn orientation proportion

Compound: CC(C)(C)OC(=O)N[C@@H](CCC(=O)NC[C@H]1O[C@@H](n2ccc(=O)[nH]c2=O)[C@H](O)[C@@H]1O)C(=O)O [Boc-isoGln(5′U)-OH, N^α-t-butoxycarbonyl-N^5-(5′-deoxy-5′-uridyl)-L-isoglutamine]
proportion of syn orientation of the base moiety ([1]; borate buffer (pH 7.2)): 56 % syn

Molar ellipticity ([θ]ext) at about 270 nm ([1]; borate buffer (pH 7.2)): 1400 deg·cm2/dmol | Molar ellipticity ([θ]ext) at about 270 nm ([1]; phosphate buffer (pH 7.2)): 4800 deg·cm2/dmol | Δ[θ]ext [1]: 3400
Compound: Boc-isoGln(5′I)-isoGln(5′U)-OH [I-U]

[θ]max ([1]; borate buffer (pH 7.2)): 12200 deg cm^2dmol^−1 | [θ]max ([1]; phosphate buffer (pH 7.2)): 14200 deg cm^2dmol^−1
Compound: Nc1ccn([C@@H]2O[C@H](CO)[C@@H](O)[C@H]2O)c(=O)n1 [Cytidine (Cyd), Cytidine, reference compound]

Compound: HCl.(isoGln(5′U))8-Lys-OH [PRNA2 (17)]
Tm ([4]; binding target d(A)8, 20 mM borax): <0 °C | Tm ([4]; binding target d(A)8, 20 mM borax, listed as PRNA2 (octamer)): below 0 °C | Tm ([4]; binding target d(A)8, no additive): 52.8 °C | Tm ([5]; binding target (T)8, 20 mM borax): <0 °C | Tm ([5]; binding target (T)8, no additive): <0 °C

Compound: NH2-UUUUUUUUTTTT-3′: chimeric molecule dodecamer, PRNA(Urd) octamer amide-bonded to thymidine tetramer
change of [θ]ext / CD peak from phosphate buffer to borate buffer (borax) [1]: [θ]ext decreased | Tm ([6]; binding target d(A)12, 20 mM borax): <0 °C | Tm ([6]; binding target d(A)12, 20 mM borax, listed as (U)8DNA(T)4): < 0 °C | Tm ([6]; binding target d(A)12, no additive, phosphate buffer pH 7.2): 42.5 °C | Tm gain of the complex over the DNA-DNA complex ([6]; no additive): 19.3 °C

proportion of syn orientation of the base moiety ([1]; 8 mM borax added, phosphate buffer pH 7.2): 83 % syn | proportion of syn orientation of the base moiety ([1]; 8 mM borax, pH adjusted from 7.2 to 6.2): 58 % syn | Molar ellipticity ([θ]ext) at about 270 nm ([1]; borate buffer (pH 7.2)): 1600 deg·cm2/dmol | [θ]max ([1]; borate buffer (pH 7.2)): 1600 deg cm^2dmol^−1 | proportion of syn orientation of the base moiety ([1]; borate buffer (pH 7.2)): 95 % syn | change of CD peak at about 270 nm / orientation upon addition of borax ([1]; pH 6.0): almost no peak decreases were observed | Molar ellipticity ([θ]ext) at about 270 nm ([1]; phosphate buffer (pH 7.2)): 5100 deg·cm2/dmol | [θ]max ([1]; phosphate buffer (pH 7.2)): 5100 deg cm^2dmol^−1 | proportion of syn orientation of the base moiety [1, 9]: 55 % syn and 54 % syn | Δ[θ]ext [1]: 3500
Compound: NC[C@H]1O[C@@H](n2ccc(=O)[nH]c2=O)[C@H](O)[C@@H]1O [5′-NH2-Urd, 5′-amino-5′-deoxyuridine]
change of CD peak at about 270 nm / orientation upon addition of borax ([1]; pH 8.8): syn orientation is induced more effectively at pH 8.8 | association constant with boric acid ([7]; boric acid (B(OH)3) added instead of borax): 49 M⁻¹ | association constant with boric acid ([7]; pH 7.2, borax added, borax supposed to give 4 equivalents of boric acid): 75 M⁻¹ | association constant with boric acid ([7]; pH 8.8, borax added): 600 M⁻¹

change of [θ]ext / CD peak from phosphate buffer to borate buffer (borax) [1]: [θ]ext decreases
Compound: Boc-isoGln(5′U)-isoGln(5′I)-isoGln(5′U)-OH [U-I-U]

Compound: Poly(N^γ-(5′-deoxy-5′-uridyl)-L-glutamine) [PRNA1]
amount of xylose giving perfect 1:1 complex formation ([8]; borax 6 times the amount of PRNA1): about 20 times that of the PRNA1 | absorbance at 260 nm after addition of D(+)-xylose ([8]; borax 6 times the amount of PRNA1, decrease from 1.03): 0.88 | effect of D(+)-glucose in lieu of D(+)-xylose ([8]; borax-containing phosphate buffer with poly(A)): the complex is formed | absorbance at 260 nm after addition of poly(A) ([8]; borax-free phosphate buffer pH 7.2, decrease from 1): 0.88 | amount of borax restoring the original absorbance (complete dissociation of complex) ([8]; phosphate buffer with PRNA1 and poly(A)): about 3 times the amount of the PRNA1

change of [θ]ext / CD peak from phosphate buffer to borate buffer (borax) [1]: [θ]ext decreases
Compound: Boc-isoGln(5′U)-isoGln(5′U)-isoGln(5′U)-OH [U-U-U]

Molar ellipticity ([θ]ext) at about 270 nm ([1]; borate buffer (pH 7.2)): 950 deg·cm2/dmol | Molar ellipticity ([θ]ext) at about 270 nm ([1]; phosphate buffer (pH 7.2)): 600 deg·cm2/dmol | Δ[θ]ext [1]: −350
Compound: Cc1cn([C@H]2C[C@H](O)[C@@H](CN)O2)c(=O)[nH]c1=O [5′-NH2-Thd [A], 5′-amino-5′-deoxythymidine, reference compound]
